Experiment: Diffusion of infused low molecular weight contrast agents in NativeSkin and FlowSkin models (surface colour intensity)
Assay type: in vitro ADME
Conditions: infused at 0.5 mg/mL, first hours of infusion; FLOWSKIN (with hypodermis) compared with NATIVESKIN (without)
Protocol: In order to characterize diffusion during the first hours of infusion in the NativeSkin° and in the FlowSkin®model, two low molecular weight contrast agents (KI: potassium Iodide, […]) and V patent blur (E131, 1 kDa) at 0.5 mg/mL have been infused in both models.
The result was similar with V patent blue (E131). Accordingly, it seems that the hypoderm facilitate the diffusion of low molecular weight agent within the FLOWSKIN® model.

For `[I-].[K+]` [KI, potassium Iodide], the “color intensity visible at the surface of the FLOWSKIN model versus the NATIVESKIN model” value was “growing faster”.

— US20230304996A1, “MICROFLUIDIC SYSTEM TO CONTROL PERFUSION, DIFFUSION AND COLLECTION OF MOLECULES OVER LONG PERIODS IN AN EX-VIVO SKIN MODEL” (GENOSKIN, priority 2020, published 2023)
